{"source": "paper PMC9558053", "about": "“Development of a novel high-throughput screen for the identification of new inhibitors of protein S-acylation” (The Journal of Biological Chemistry, 2022)", "key": {"[1]": {"target": "T1, human zDHHC2 (Homo sapiens, UniProt Q9UIJ5)", "T1 construct": "expressed in transfected cells; host or cells: HEK293T", "T1 sequence (Q9UIJ5 1-367)": "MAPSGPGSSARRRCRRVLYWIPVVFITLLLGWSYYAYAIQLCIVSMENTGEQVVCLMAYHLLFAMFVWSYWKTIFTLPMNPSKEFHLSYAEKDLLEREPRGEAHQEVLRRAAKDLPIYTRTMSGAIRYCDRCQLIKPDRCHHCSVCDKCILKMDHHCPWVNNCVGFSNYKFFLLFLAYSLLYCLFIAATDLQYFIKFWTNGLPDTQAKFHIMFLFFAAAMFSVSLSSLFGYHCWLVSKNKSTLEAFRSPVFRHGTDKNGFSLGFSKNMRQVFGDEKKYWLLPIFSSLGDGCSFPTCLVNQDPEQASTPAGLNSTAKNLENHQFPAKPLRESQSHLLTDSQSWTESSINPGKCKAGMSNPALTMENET", "test": "PSD95-mCHERRY S-acylation in HEK293T cells co-expressing zDHHC2", "type": "cell-based", "details": "25 μM", "from_the_text": "(§1) PSD95 (postsynaptic density protein 95) is a major S-acylated protein that has a critical role in the maturation of excitatory neurons and in synaptic plasticity ([46], [47]). PSD95 can be S-acylated by zDHHC2, zDHHC3, zDHHC7, and zDHHC15 ([6]). […] We therefore tested the effects of TTZ-1 and TTZ-2 on the S-acylation of PSD95 mediated by zDHHC2, zDHHC3, zDHHC7, and zDHHC15. […] In contrast, zDHHC3 and zDHHC7 activities toward PSD95 were unaffected by TTZ-1 and TTZ-2, mirroring the data obtained with GFP-SNAP25 as a substrate.\n(§2) Figure 9 Activity of TTZ-1 and TTZ-2 against PSD95 S-acylation mediated by human zDHHC2, zDHHC3, zDHHC7, and zDHHC15 expressed in mammalian cells. HEK293T cells were transfected with a plasmid encoding PSD95-mCHERRY together with either a control plasmid pEF-BOS-HA (pEF) or a plasmid encoding either HA-tagged human zDHHC2 (zD2), zDHHC3 (zD3), zDHHC7 (zD7), or zDHHC15 (zD15) for 24 h. Cells were then preincubated for 4 h with TTZ-1 or TTZ-2 (25 μM final) or DMSO control before metabolic labeling with 100 μM C16:0-azide for 4 h. Cells were lysed, and proteins having incorporated C16:0-azide were labeled by click chemistry with an alkyne-IR800 dye. […] The data were quantified, and the graphs below each set of membranes show mean ± SEM of normalized S-acylation of PSD95-mCHERRY (click signal/RFP signal). […]"}, "[2]": {"target": "T2, human zDHHC3 (Homo sapiens, UniProt Q9NYG2)", "T2 construct": "expressed in transfected cells; host or cells: HEK293T", "T2 sequence (Q9NYG2 1-299)": "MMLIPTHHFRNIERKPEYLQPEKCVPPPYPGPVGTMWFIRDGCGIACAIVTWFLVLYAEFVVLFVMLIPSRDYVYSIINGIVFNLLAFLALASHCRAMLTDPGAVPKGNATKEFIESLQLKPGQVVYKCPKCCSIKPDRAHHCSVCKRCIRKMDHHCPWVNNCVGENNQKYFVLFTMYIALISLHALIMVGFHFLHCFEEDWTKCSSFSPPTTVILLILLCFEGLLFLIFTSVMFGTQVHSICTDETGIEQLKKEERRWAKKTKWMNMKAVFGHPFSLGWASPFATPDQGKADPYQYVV", "test": "PSD95-mCHERRY S-acylation in HEK293T cells co-expressing zDHHC3", "type": "cell-based", "details": "25 μM", "from_the_text": "as §1, §2"}}, "data": [{"smiles": "CCCCCCCOc1ccc(C(=O)Nc2cccc3c2OC(c2nnn[nH]2)CN3)cc1", "note": "(stereo not shown) [TTZ-1, N-(2-(1H-Tetrazol-5-yl)-3,4-dihydro-2H-benzo[b][1,4]oxazin-8-yl)-4-(heptyloxy)benzamide]", "values": [{"measurement": "PSD95-mCHERRY S-acylation by zDHHC2", "setting": "[1]", "result": "significantly inhibited"}, {"measurement": "PSD95-mCHERRY S-acylation by zDHHC3", "setting": "[2]", "result": "unaffected"}]}, {"smiles": "O=C(Nc1cccc2c1OC(c1nnn[nH]1)CN2)c1ccc(OCCCCc2ccccc2)cc1", "note": "(stereo not shown) [TTZ-2, N-(2-(1H-Tetrazol-5-yl)-3,4-dihydro-2H-benzo[b][1,4]oxazin-8-yl)-4-(4-phenylbutoxy)benzamide]", "values": [{"measurement": "PSD95-mCHERRY S-acylation by zDHHC2", "setting": "[1]", "result": "significantly inhibited"}, {"measurement": "PSD95-mCHERRY S-acylation by zDHHC3", "setting": "[2]", "result": "unaffected"}]}]}
